Reference: PMC10127203, “Trapoxin A Analogue as a Selective Nanomolar Inhibitor of HDAC11” (ACS Chemical Biology, 2023)

Legend:
[1] = biological target: T1, HDAC11 (Homo sapiens, UniProt Q96DB2); parameters: method as in PMID 31264832; settings: cited from earlier work
T1 sequence (Q96DB2 1-347): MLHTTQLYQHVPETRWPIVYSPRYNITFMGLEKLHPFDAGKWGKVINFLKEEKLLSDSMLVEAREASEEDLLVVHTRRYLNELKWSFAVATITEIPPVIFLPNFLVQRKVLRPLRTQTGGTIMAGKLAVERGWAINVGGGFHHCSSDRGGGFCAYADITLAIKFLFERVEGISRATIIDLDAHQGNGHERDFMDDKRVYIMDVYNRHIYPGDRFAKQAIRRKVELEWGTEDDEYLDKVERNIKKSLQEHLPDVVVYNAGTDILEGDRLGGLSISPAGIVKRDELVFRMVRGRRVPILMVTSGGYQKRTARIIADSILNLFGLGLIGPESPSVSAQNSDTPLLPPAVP

[2] = tested on: α-tubulin, p53, and histone H3 acetylation levels; assay: Acetylation levels of α-tubulin, p53 and histone H3 by Western blot in cells; format: cell-based; settings: 3 h of treatment
Source text: . As a positive control, we used trichostatin A (TSA), a nonselective HDAC inhibitor against both class I and class IIb HDACs.[25] […]

[3] = tested on: YAP1 protein level in A549 cells; assay: YAP1 protein level by Western blot in A549 cells; format: cell-based; settings: A549 cells, 5 and 10 μM, 24 hr
Method: (§1) A549 cells were treated with TD034 at 5 and 10 μM for 24 hr. Western blot was used to check for YAP1 protein level. qRT-PCR was used to check for YAP1 downstream genes transcription (CTGF and CYR61). Total RNA was extracted using IBI Isolate Total Extraction Reagent Kit (IB47602). […] of RNA was reverse transcribed using OneScript Plus cDNA Synthesis Kit (ABM G236) according to the manufacturer’s protocol. Real-time PCR was performed using BlasTaq 2X qPCR MasterMix (ABM G892) on a QuantStudio 3 Real-Time PCR System. All qPCR reactions were performed in triplicates. The list of primers is included in the Supporting Information.

[4] = tested on: YAP1 target genes CTGF and CYR61 in A549 cells; assay: mRNA level of YAP1 and YAP1 target genes (CTGF, CYR61) by qRT-PCR in A549 cells; format: cell-based; settings: 5 and 10 μM, 24 hr
Method: as §1

[5] = biological target: T1, HDAC11; assay: HDAC11 enzyme activity assay (Myr-H3K9 peptide, HPLC); format: biochemical; parameters: made in house
Method: All quantified measurements were performed in triplicates. Data processing was performed using Graphpad Prism 9.5.0. Repeated measures of one-way ANOVA with Fisher’s LSD test were used to determine the P value. The dose–response data was fitted using a two-step nonlinear regression of the Morrison equation. […] HDACs and SIRTs were expressed and purified as previously described.[13] […] For HDAC1, 6, 8, and SIRT1-2, Ac-H3K9 was used as a substrate. […] The reaction was conducted for 15 min (HDAC11), 30 min (HDAC1, 4, 6, 8), and 5 min (SIRT1-2). Then, 20 μL of 0.2% TFA/acetonitrile was added to quench the reaction. The samples were analyzed by HPLC using a Chromolith HighResolution RP-18 end-capped 100 mm × 4.6 mm column (EMD Millipore). Mobile phase A was 0.1% TFA in water and mobile phase B was 0.1% TFA in acetonitrile. The total flow rate was 1 mL/min, and the gradient was 0% B (2 min), 0–60% B (7 min), 100% B (4 min), and 0% B (2 min). The relative ratio of product/substrate in each sample was compared to control sample (no inhibitor) to determine the inhibition level.

[6] = biological target: T1, HDAC11; assay: HDAC11 in cell assay: defatty acylation of SHMT2 (Alk14 labeling, Western blot); format: cell-based; parameters: endogenous in cells; host or cells: HEK293T; settings: HEK293T cells, 20 μM, 3 h, 50 μM Alk14
Method: We treated HEK293T cells with an alkyne-tagged myristic acid analog, Alk14, along with the inhibitors (TD034, SIS17, or FT895) for 3 h. Click chemistry was performed on cell lysate with Biotin-azide, followed by Streptavidin pulldown. […] HEK293T in a six-well plate at 80% confluency was treated with 50 μM Alk14 and inhibitors at various concentrations. The cells were incubated for 3 h. The cells were harvested and lysed in 200 μL of 4% SDS lysis buffer (50 mM triethanolamine, 150 mM NaCl, 4% SDS, pH 7.4) with a 1:100 protease inhibitor cocktail and 1:1000 nuclease for 15 min. The cell lysates were then diluted with 3.8 mL of HEPES buffer (50 mM HEPES, 150 mM NaCl, 1% NP-40, pH 7.4), and then concentrated using Amicon Ultra-4 (30 kDa cutoff) for 45 min at 4000g. The retained samples were then diluted to 0.5 mL with HEPES buffer, followed by the addition of Biotin-N3 (5 μL, 5 mM in DMF), TBTA (5 μL, 2 mM in DMF), CuSO4 (5 μL, 50 mM in water), and TCEP (5 μL, 50 mM in water). The samples were shaken at 37 °C for 1 h, then diluted with 3 mL of HEPES buffer, and concentrated again using Amicon Ultra-4 (30 kDa cutoff) for 45 min at 4000g. The retained samples were then diluted to 0.5 mL with HEPES buffer, followed by the addition of 20 μg of magnetic streptavidin beads (prewashed with the HEPES buffer). […] The eluants were further analyzed by SDS-PAGE and Western blot for SHMT2.

SMILES: O=C(CCCCCCC(=O)Nc1ccccc1)NO [SAHA]
- inhibition of HDAC11 demyristoylation activity in vitro [1]: cannot efficiently inhibit

SMILES: CC(/C=C/C(=O)NO)=C\[C@@H](C)C(=O)c1ccc(N(C)C)cc1 [TSA, trichostatin A, reference compound]
- level of acetylated α-tubulin (HDAC6 and SIRT2 target) [2]: elevated level
- levels of acetylated histone H3 and acetylated p53 (class I HDACs and SIRT1 target) [2]: increased levels

SMILES: CCCCCCCCCCC[C@@H]1O[C@H]1C(=O)CCCCC[C@@H]1NC(=O)[C@H]2CCCCN2C(=O)[C@H](Cc2ccccc2)NC(=O)[C@H](Cc2ccccc2)NC1=O [TD034-(R)]
- YAP1 protein levels [3]: did not observe such an effect
- mRNA levels of YAP1 target genes CTGF and CYR61 [4]: did not observe such an effect

SMILES: CCCCCCCCCCC1(C(=O)CCCCC[C@@H]2NC(=O)[C@H]3CCCCN3C(=O)[C@H](Cc3ccccc3)NC(=O)[C@H](Cc3ccccc3)NC2=O)CO1 (some centres unmarked) [TD036]
- HDAC11 inhibition (in words) [5]: abolished HDAC11 inhibition

SMILES: CCCCCCCCCCCCCCCCNNC(=O)c1cccs1 [SIS17]
- inhibition of HDAC11 demyristoylation activity in vitro [1]: low micromolar inhibition
- fatty acylation level of SHMT2 [6]: same effect
